Assay results: US20130288956A1, “COMBINED PHARMACEUTICAL COMPOSITION AS ANTIFUNGAL AGENT” (priority 2010, published 2013)

Key:
[1] = system: C. tropicalis; assay: In vitro combination effects, checkerboard method by micro dilution (FIC index); type: cell-based, Candida tropicalis; conditions: C. tropicalis (10 strains); combination use with Test Compound 1
Procedure: (§1) A clinically isolated strain retained by the Medical Mycology Research Center of Chiba University (Code No. IFM) and a clinically isolated strain retained by the Life Science Research Center of Gifu University (Code No. E) were used as Candida and Aspergillus strains.
(§2) Fungus liquid obtained by static culturing at 35° C. for 48 hours in Sabouraud Dextrose liquid medium (SDB, Becton, Dickinson and Co.) was diluted with RPMI 1640 medium (Nissui Pharmaceutical Co., Ltd.) containing 0.165 M 3-(N-morpholino)propanesulfonic acid (MOPS) to prepare a fungus liquid having a fungus concentration of 1×10^3 cells/mL to 2×10^3 cells/mL.
(§3) Test Compound 1 (0.0005 μg/mL to 1.56 μg/mL) in the horizontal rows (12 wells) of a 96-well flat-bottom plate, and an antifungal agent in the form of ravuconazole (0.0015 μg/mL to 6.25 μg/mL), fluconazole (0.008 μg/mL to 32 μg/mL), voriconazole (0.0002 μg/mL to 8 μg/mL), micafungin (0.0005 μg/mL to 0.25 μg/mL), caspofungin (0.0005 μg/mL to 1 μg/mL) or amphotericin B (0.008 μg/mL to 8 μg/mL) in the vertical rows (8 wells) of the flat-bottom plate were prepared by diluting so as to blend together using RPMI 1640 medium containing 0.165 M MOPS to obtain a control group, a single Test Compound 1 group, each one of antifungal agents groups and combination groups of Test Compound 1+each one of antifungal agents.
(§4) The fungus liquids prepared in (1) were inoculated into the wells of 96-well flat-bottom plate containing 20 μL/well to 75 μL/well of the diluted test drug liquids prepared in (2) at 80 μL/well to 125 μL/well, followed by aerobically static culturing for 25 hours to 48 hours at 35° C.
(§5) Combination effects of Test Compound 1 and the antifungal agents were measured with the checkerboard method by micro dilution.
(§6) Interaction between both drugs was assessed by calculating the FIC index using the calculation formula indicated below.
(§7) The FIC index was calculated for each combination of antifungal agent concentrations that inhibited fungal growth, and the minimum value of the resulting FIC index was used as a combination FIC index.
(§8) A combination FIC index of 0.5 or less was evaluated as indicating synergistic action, that of 0.5 to 1 or less was evaluated as indicating additive action, and that of 1 to 4 or less was evaluated as indicating indifferent action.
(§9) FIC Index=(MIC value of drug A during combination use/MIC value of drug A when used alone)+(MIC value of drug B during combination use/MIC value of drug B when used alone) (Calculation Formula)

[2] = system: C. albicans; assay: as above; type: cell-based, Candida albicans; conditions: C. albicans (20 strains); combination use with Test Compound 1
Procedure: as §1, §2, §3, §4, §5, §6, §7, §8, §9

[3] = system: A. flavus strain IFM50915; assay: A. flavus respiratory tract infection model; type: in vivo, mice
Procedure: Female DBA/2N mice (age 8 weeks, Charles River Laboratories Japan, Inc.) were subcutaneously administered 200 mg/kg of 5-fluorouracil 5 or 6 days prior to infection in order to put the mice into a compromised state.
A. fumigatus strain IFM52108 and A. flavus strain IFM50915 were used.
A liquid containing spores of A. flavus strain IFM50915 stored at −80° C. was thawed, and the number of spores was counted using a hemocytometer followed by diluting with sterile physiological saline containing 0.05% Tween 80 to a concentration of 0.6×10^6 cells/mL to 1.0×10^6 cells/mL to obtain an inoculation fungus liquid.
50 μl of inoculation fungus liquid were inoculated into the nasal cavities of 9-week-old mice at 0.3×10^5 cells/mouse to 1.25×10^5 cells/mouse under Ketalar anesthesia.
0.1 mL to 0.2 mL of each drug solution (dissolved in sterile physiological saline or 5% glucose solution, or dissolved in sterile physiological saline or 5% glucose solution containing 6.5% dimethylsulfoxide and 3.5% Tween 80) was administered to the individual and combination dose groups either into the peritoneal cavity or into the stomach using a gastric cannula corresponding to the administration route of the drug for 3 to 4 days at the rate of 1 to 2 times per day starting 0.5 hours to 1 hour after inoculation of fungus.
There were 5 to 9 animals in each group.
Infection protection results were assessed on survival rate 14 days after infection.

[4] = system: A. fumigatus; assay: In vitro combination effects, checkerboard method by micro dilution (FIC index); type: cell-based, Aspergillus fumigatus; conditions: A. fumigatus (18 strains)
Procedure: as §1
(§10) An Aspergillus strain stored frozen at −80° C., or spores obtained by static culturing at 35° C. for 1 week in Potato Dextrose agar medium (PDA, Eiken Chemical Co., Ltd.) followed by scraping from the container with a metal loop, was diluted with RPMI 1640 medium containing 0.165 M MOPS to prepare a fungus liquid having a fungus concentration of 0.75×10^4 cells/mL to 1.33×10^4 cells/mL.
as §3, §4, §5, §6, §7, §8, §9

[5] = system: C. glabrata; assay: as above; type: cell-based, Candida glabrata; conditions: for Ratio indicating Additive effect of combination use with Test Compound 1 / Ratio indicating Antagonistic effect of combination use with Test Compound 1 / Ratio indicating Indifferent effect of combination use with Test Compound 1 / Ratio indicating Synergistic effect of combination use with Test Compound 1: C. glabrata (10 strains)
Procedure: as §1, §2, §3, §4, §5, §6, §7, §8, §9

[6] = system: A. flavus; assay: as above; type: cell-based, Aspergillus flavus; conditions: A. flavus (4 strains), Table 1
Procedure: as §1, §10, §3, §4, §5, §6, §7, §8, §9

| SMILES | Ratio indicating Additive effect of combination use with Test Compound 1 [1] [%] | Ratio indicating Antagonistic effect of combination use with Test Compound 1 [1] [%] | Ratio indicating Indifferent effect of combination use with Test Compound 1 [1] [%] | Ratio indicating Synergistic effect of combination use with Test Compound 1 [1] [%] | Ratio indicating Additive effect of combination use with Test Compound 1 [2] [%] | Ratio indicating Antagonistic effect of combination use with Test Compound 1 [2] [%] | Ratio indicating Indifferent effect of combination use with Test Compound 1 [2] [%] | Ratio indicating Synergistic effect of combination use with Test Compound 1 [2] [%] | Ratio indicating Additive effect of combination use with Test Compound 1 [5] [%] | Ratio indicating Antagonistic effect of combination use with Test Compound 1 [5] [%] | Ratio indicating Indifferent effect of combination use with Test Compound 1 [5] [%] | Ratio indicating Synergistic effect of combination use with Test Compound 1 [5] [%] | further results |
| --- | --- | --- | --- | --- | --- | --- | --- | --- | --- | --- | --- | --- | --- |
| C[C@@H]1[C@H](O)[C@@H](C)/C=C/C=C/C=C/C=C/C=C/C=C/C=C/[C@H](O[C@@H]2O[C@H](C)[C@@H](O)[C@H](N)[C@@H]2O)C[C@@H]2O[C@](O)(C[C@@H](O)C[C@@H](O)[C@H](O)CC[C@@H](O)C[C@@H](O)CC(=O)O[C@H]1C)C[C@H](O)[C@H]2C(=O)O [Amphotericin B, amphotericin B] | 90 | 0 | 10 | 0 | 85 | 0 | 10 | 5 | 70 | 0 | 0 | 30 | 14-day survival rate ([3]; AMPH 0.5 mg/kg): 20%; 14-day survival rate ([3]; AMPH 1 mg/kg): 0%; Combined effects in mouse Aspergillus flavus infection model ([3]; combination with the test compound of the invention): synergistic combined effects; Ratio indicating Additive effect of combination use with Test Compound 1 [4]: 33%; Ratio indicating Antagonistic effect of combination use with Test Compound 1 [4]: 0%; Ratio indicating Indifferent effect of combination use with Test Compound 1 [4]: 67%; Ratio indicating Synergistic effect of combination use with Test Compound 1 [4]: 0%; Effect of combination use with Test Compound 1 (FIC index evaluation) ([5]; Candida glabrata strain IFM46888, resistant to fluconazole): synergistic (A combination FIC index of 0.5 or less was evaluated as indicating synergistic action); Ratio indicating Additive effect of combination use with Test Compound 1 [6]: 25%; Ratio indicating Antagonistic effect of combination use with Test Compound 1 [6]: 0%; Ratio indicating Indifferent effect of combination use with Test Compound 1 [6]: 75%; Ratio indicating Synergistic effect of combination use with Test Compound 1 [6]: 0% |
| OC(Cn1cncn1)(Cn1cncn1)c1ccc(F)cc1F [Fluconazole, fluconazole] | 10 | 0 | 0 | 90 | 80 | 0 | 10 | 10 | 90 | 0 | 10 | 0 | – |
| Nc1c(-c2cc(Cc3ccc(COc4ccccn4)cc3)no2)ccc[n+]1COP(=O)([O-])O [Test Compound 2, 2-amino-1-((phosphonooxy)methyl)-3-(3-((4-((2-pyridinyloxy)methyl)phenyl)methyl)-5-isoxazolyl)-pyridinium] | – | – | – | – | – | – | – | – | – | – | – | – | 14-day survival rate ([3]; Test Compound 2 2.5 mg/kg, Table 5 CSFG experiment): 0%; 14-day survival rate ([3]; Test Compound 2 5 mg/kg, Table 5 CSFG experiment): 50%; 14-day survival rate ([3]; Test Compound 2 5 mg/kg, Table 5 L-AmB experiment): 0%; 14-day survival rate ([3]; Test Compound 2 5 mg/kg, Table 5 MCFG experiment): 22.2%; 14-day survival rate ([3]; Test Compound 2 10 mg/kg, Table 5 MCFG experiment): 55.6% |
